Our source for the GFP expression remaining values is PubChem BioAssay AID1313 (NMMLSC, 2008).

For this test, the system named is S. cerevisiae Sic1-GFP degradation, flow cytometry time course. The experiment in a line: yeast Sic1-GFP proteasomal turnover blockers – secondary assay, flow cytometry, S. cerevisiae (AID 1313). The note with it: stronger effect = higher value; for GFP expression remaining at 240 min: measured here: earlier time point. (In general: In flow cytometry, cells or beads pass a laser one at a time.)

Calls of active or inactive are those of the source.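 Rule for the calls: active = compounds raising total GFP signal across six hours by more than 15% versus untreated cells; inactive = the rest.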 Peptide text beside a SMILES is read from it. * marks the point of attachment. Cbz = O=C(OCc1ccccc1)*

Turning to `CC(C)C[C@@H](C=O)NC(=O)[C@H](CC(C)C)NC(=O)[C@H](CC(C)C)NC(=O)OCc1ccccc1` (Cbz-Leu-Leu-Leu-aldehyde), the GFP expression remaining at 360 min is 1.68% (inactive) and the GFP expression remaining at 240 min turned out to be 3.24%.

As for `CC(=O)N1C(=O)C(=C2C=C(C)OC(C)=C2)c2ccccc21`, the GFP expression remaining at 360 min is 0.71% (inactive) and the GFP expression remaining at 240 min was determined as 1.3%.
